These are literature values, as cited in US20170258746A1, “ACETIC ACID/THYMOL COMPOSITIONS AND THEIR USE IN THE TREATMENT OF ONYCHOMYCOSIS” (Dr. Paul's Enterprises, LLC, priority 2008, published 2017).

Series [1] relates to onychomycosis. To be noted: oral, Arch. Dermatol. 134(12) (December 1998).
For series [2] the following is noted: oral, in children; American Family Physician vol. 63, no. 4, Feb. 15, 2001.

As for `CN(C/C=C/C#CC(C)(C)C)Cc1cccc2ccccc12` [terbinafine], in series [1], the “disease-free nail, % of patients” value is given as 35-50%.

For `COC1=CC(=O)C[C@@H](C)[C@]12Oc1c(Cl)c(OC)cc(OC)c1C2=O` [griseofulvin], the toxicity entry in series [2] was “some level of toxicity”.
